Assay results as given in US20080051285A1 (priority 2004, published 2008).
Like-named read-outs stand apart in the source and are kept apart here.

Tested on: Pyricularia oryzae
Assay type: in vivo
Details: individual active compound, protective, inoculated next day, assessed after 6 days

Structure (SMILES) | Efficacy in % of the untreated control (1 ppm in the spray liquor) [%] | Efficacy in % of the untreated control (4 ppm in the spray liquor) [%]
C[C@H](Nc1c(-c2c(F)cc(F)cc2F)c(Cl)nc2ncnn12)C(F)(F)F [B] | 13 | 57
C=CC1(C)OC(=O)N(c2cc(Cl)cc(Cl)c2)C1=O (centres unmarked) [compound II, 3-(3,5-dichlorophenyl)-5-methyl-5-vinyloxazolidine-2,4-dione] | 0 | 0
CC1CCN(c2c(-c3c(F)cc(F)cc3F)c(Cl)nc3ncnn23)CC1 [compound I, 5-chloro-7-(4-methylpiperidin-1-yl)-6-(2,4,6-trifluorophenyl)-[1,2,4]tri-azolo[1,5-a]pyrimidine] | 13 | 28
CC1CCN(c2c(-c3c(F)cccc3Cl)c(Cl)nc3ncnn23)CC1 [A] | 0 | 13
